Test results: EP2082991A1, “Method of Water Treatment” (Thermphos Trading GmbH, priority 2008, dated 2009)
Where two headings read alike, the source gives them in different places.

Legend:
[1] = 22 hours at 90 °C, pH 5.5
Procedure: Brine/sea water compatibility.
This test assesses sea water compatibility of the phosphonates added at: 100; 1000; 10000; and 50000 ppm to North Sea water after 22 hours at 90 °C. Calcium left in solution is measured by ICP.
Test details are as follows: • prepare synthetic North Sea water at pH 5.5; • add the phosphonate at 100, 1000, 10000 and 50000 ppm active acid to the synthetic North Sea water solution; • prepare 5 blank solutions made by mixing the required amount of distilled water with North Sea water to obtain the same dilution as obtained by the addition of […], 1000, 10000 and 50000 ppm active acid phosphonate to the synthetic North Sea water solution; • the phosphonate samples with the respective phosphonates at the 4 concentrations as well as the 5 blanks are stored in an oven at 90 °C for a period of 22-24 hours; • upon completion of the test, the samples are observed visually; • after completion of the test, the pH values are being carefully monitored and 50 ml are drawn from each sample, filtered through a […] Millipore filter and stabilized at pH<2 by addition of 37 % aqueous hydrochloric acid; • Ca tolerance values are calculated as follows: % Ca tolerance = (Vi)/(V0) × 100 [formula] • where V0 = ppm Ca found in the blank solution; and • V1 = ppm Ca found in the solution with the phosphonate.

[2] = minimum concentration for full scale inhibition; 22 hours at 90 °C, pH 6; tested at 15, 30, 50, 70 and 100 ppm
Procedure: Barium sulphate scale inhibition.
This is a static test to evaluate the efficiency of phosphonates in preventing barium and strontium scale inhibition in oil field scaling conditions. The test is carried out by determining the amount of BaSO4 and SrSO4 that has precipitated after 22 hours at 90 °C in a 50/50 mixture of synthetic North Sea water and Formation water containing the phosphonates to be tested at 5 different concentrations. The amount of soluble Ba and Sr ions is determined by ICP. The results stand for the minimum phosphonate concentration for 100 % barium sulphate scale inhibition or give the scale inhibition at 100 ppm loading of phosphonate.
Test details are as follows:
Synthetic North Sea water:
• synthetic North Sea and Formation water are prepared having a pH of 6. These water solutions are preheated at 90 °C before starting the test. […] Then add to this glass bottle 50 ml of Formation water; • also prepare one blank solution by mixing 50 ml of North Sea water with 50 ml of Formation water; • put the sample bottles in an oven for 22 hours at 90 °C; • after 22 hours, take 3 ml of each test solution from the surface, filter through a 0.45 µm Millipore filter and add to a stabilizing solution.

[3] = 1 % active acid phosphonate in synthetic North Sea water, pH 5.5, 140 °C, one week
Procedure: Thermal stability assessment.
This is a test to assess the thermal stability of phosphonates in the presence of synthetic North Sea water. The test is carried out by submitting mixtures of North Sea water and phosphonates stabilized at pH 5.5 to a one week heating at 140 °C. The thermal degradation is determined by ^31P NMR analysis.

[4] = Peroxide stabilization procedure (perborate/TAED with iron, 40°C, thiosulphate titration); conditions: 35 ppm phosphonate
Procedure: Peroxide stabilization procedure
In a 250 ml glass bottle filled with 200ml deionised water stabilized at 40°C add the following ingredients: […], 35ppm of the tested bleach stabilizer, 0.53g of sodium bicarbonate, 0.42g of sodium carbonate, 0.14g of sodium perborate tetrahydrate and 0.06g of tetra-acetyl ethylene diamine (TAED). Dissolve these ingredients in the water by using an ultrasonic bath. After one minute of such treatment the bottle is transferred to the water bath set at 40°C and samples (10 ml each) are taken from the test bottle 2, 6,10,15,20 and 30 minutes thereafter. To these samples are added 10ml of 1M potassium iodide and 10ml of 20% aqueous sulphuric acid before immediate titration with a standardized 0.01N thiosulphate solution.

[5] = minimum phosphonate concentration for 100% calcium carbonate scale inhibition; 22 hours at 50°C, pH 9
Procedure: Testing method for calcium carbonate scale inhibition.
This is a static test to evaluate the efficiency of phosphonates in preventing calcium carbonate scale inhibition in industrial water treatment conditions. The test is carried out by determining the amount of CaCO3 that has precipitated after 22 hours at 50°C in a 50/50 mixture of cationic and anionic waters with the test phosphonates at 5 different concentrations. The amount of soluble Ca ions is analyzed by titration. Result indicates the % Ca scale inhibition provided by the 5 phosphonate concentrations. Reported results give the minimum phosphonate concentration for 100% calcium carbonate scale inhibition.
• Cationic and anionic waters are prepared at pH 9.

[6] = 100 ppm phosphonate in North Sea water
[7] = 1000 ppm phosphonate in North Sea water
[8] = 10000 ppm phosphonate in North Sea water
[9] = 50000 ppm phosphonate in North Sea water

O=P(O)(O)CN(CCCCC(CCCN(CP(=O)(O)O)CP(=O)(O)O)CN(CP(=O)(O)O)CP(=O)(O)O)CP(=O)(O)O (centres unmarked) [AMODHMPA, 4-Aminomethyl 1,8-octane diamine hexa (methylene phosphonic acid)]
Ca Tolerance in % [1, 6]: 99% | Ca Tolerance in % [1, 7]: 83% | Ca Tolerance in % [1, 8]: 21% | Ca Tolerance in % [1, 9]: 100% | Ba Scale Inhibition: ppm phosphonate needed for 100% BaSO4 scale inhibition [2]: 30ppm full scale | Thermal Stability at 140°C 1 week Decomposition in % [3]: 8.8%

O=P(O)(O)CN(CCO)CP(=O)(O)O [HEIBMPA, 2-Hydroxy ethyl imino bis (methylene phosphonic acid)]
Ca Tolerance in % [1, 6]: 100% | Ca Tolerance in % [1, 7]: 79% | Ca Tolerance in % [1, 8]: 100% | Ca Tolerance in % [1, 9]: 100% | Ba Scale Inhibition: ppm phosphonate needed for 100% BaSO4 scale inhibition [2]: 30ppm full scale | Thermal Stability at 140°C 1 week Decomposition in % [3]: 19%

O=P([O-])(O)CN(CCN(CCN(CP(=O)(O)O)CP(=O)(O)O)CP(=O)(O)O)CP(=O)(O)O.[Na+] [Dequest 2066]
% remaining act.oxygen ([4]; 0 min): 100% | % remaining act.oxygen ([4]; 2 min): 100% | % remaining act.oxygen ([4]; 6 min): 99% | % remaining act.oxygen ([4]; 10 min): 97% | % remaining act.oxygen ([4]; 15 min): 95% | % remaining act.oxygen ([4]; 20 min): 94% | % remaining act.oxygen ([4]; 30 min): 90%

O=P(O)(O)CN(CCN(CP(=O)(O)O)CP(=O)(O)O)CCN(CP(=O)(O)O)CP(=O)(O)O [Dequest 2066A, diethylene triaminopentamethylene phosphonate]
Ca Scale Inhibition [5]: 2 ppm full scale | Ca Tolerance in % [1, 6]: 100% | Ca Tolerance in % [1, 7]: 89% | Ca Tolerance in % [1, 8]: 24% | Ca Tolerance in % [1, 9]: 100% | Ba Scale Inhibition: ppm phosphonate needed for 100% BaSO4 scale inhibition [2]: 15ppm full scale | Thermal Stability at 140°C 1 week Decomposition in % [3]: 24%
